Assay results published in patent US20070275382A1, “Biomarkers for the Efficacy of Somatostatin Analogue Treatment” (priority 2003, published 2007).
*1 amine or outer side, *2 acyl side, *3 side chain or, on linkers, in order; H or OH if unused. Where a SMILES comes first, the peptide text is derived from it. Side-chain parts run from the residue outwards. [ ]: non-standard residue; d: D form. The star is where a group is joined. Ethylenediamine = C(CN[*:2])N[*:1]; Hyp = O=C(O)[CH]1C[CH](O)CN1; Phg = N[CH](C(=O)O)c1ccccc1; CO = O=C([*:1])[*:2]; Bn = c1ccc(C*)cc1

Tested on: Spleen
Test: Microarray gene expression profiling (HG-U95A), spleen
Type: in vivo, cynomolgus monkeys
Description: Origin of tissue and processing. Male and female cynomolgus monkeys received subcutaneously pasireotide (100 μg/animal/day) or the vehicle for 14 days. On day 15, all animals were sacrificed and tissues for RNA extraction were immediately snap-frozen and kept at −80° C. until processing.
RNA expression profiling was conducted by means of the HG-U95A gene expression probe array (Affymetrix; Santa Clara, Calif. USA), containing more than 12,600 probe sets interrogating primarily full-length human genes and also some control probe sets. The experiment was conducted according to the recommendations of the manufacturer. Briefly, total RNA was obtained by acid guanidinium thiocyanate-phenol-chloroform extraction (Trizol®, Invitrogen Life Technologies, San Diego, Calif. USA) from each frozen tissue section. The total RNA was then purified on an affinity resin (Rneasy®, Qiagen) and quantified. Double stranded cDNA was synthesized with a starting amount of approximately 5 μg full-length total RNA using the Superscript® Choice System (Invitrogen Life Technologies, Carlsbad, Calif. USA) in the presence of a T7-(dT)24 DNA oligonucleotide primer. Following synthesis, the cDNA was purified by phenol/chloroform/isoamyl alcohol extraction and ethanol precipitation. The purified cDNA was then transcribed in vitro using the BioArray® High Yield RNA Transcript Labeling Kit (ENZO, Farmingdale, N.Y. USA) in the presence of biotinylated ribonucleotides form biotin labelled cRNA. The labelled cRNA was then purified on an affinity resin (Rneasy®, Qiagen), quantified and fragmented. An amount of approximately 10 μg labelled cRNA was hybridized for 16 hours at 45° C. to an expression probe array. The array was then washed and stained twice with streptavidin-phycoerythrin (Molecular Probes,) using the GeneChip® Fluidics Workstation 400 (Affymetrix, Santa Clara, Calif. USA). The array was then scanned twice using a confocal laser scanner (GeneArray® Scanner, Agilent, Palo Alto, Calif. USA) resulting in one scanned image. This resulting “.dat-file” was processed using the MAS4 program (Affymetrix) into a “.cel-file”. The “.cel file” was captured and loaded into the Affymetrix GeneChip® Laboratory Information Management System (LIMS). The LIMS database is connected to a UNIX Sun Solaris server through a network filing system that allows for the average intensities for all probes cells (CEL file) to be downloaded into an Oracle database (NPGN). Raw data was converted to expression levels using a “target intensity” of 150. The data were evaluated for quality control and loaded in the GeneSpring® software 4.2.4 (Silicon Genetics, Calif. USA) for analysis.
On the human Affymetrix HGU95Av2 chip, probe sets for individual genes contain 20 oligonucleotide pairs, each composed of a “perfect match” 25-mer and a “mismatch” 25-mer differing from the “perfect” match oligonucleotide at a single base. After probe labelling, hybridization, and laser scanning, the expression level was estimated by averaging the differences in signal intensity measured by oligonucleotide pairs of a given probe (AvgDiff value). The fold changes and directions were calculated for selected genes, from the differences of the AvgDiff values between controls and treated.
To identify genes that were impacted by pasireotide, the dataset was initially filtered to exclude in a first wave of analysis, genes whose values were systematically in the lower expression ranges where the experimental noise is high (at least 80 in a number of experiments corresponding to the smallest number of replicas of any experimental point). In a second round of selection a threshold p-value of 0.05 (based on a t-test) identified differences between treated and control based on a two component error model (Global Error Model) and, whenever possible, with a stepdown correction for multi-hypothesis testing (Benjamini and Hochberg false discovery rate). […]

[1] = ↑ increase, treated vs controls
[2] = ↓ decrease, treated vs controls

In the case of NCCCCC1NC(=O)C(Cc2c[nH]c3ccccc23)NC(=O)C(c2ccccc2)NC(=O)C2CC(OC(=O)NCCN)CN2C(=O)C(Cc2ccccc2)NC(=O)C(Cc2ccc(OCc3ccccc3)cc2)NC1=O (stereo not drawn) [Pasireotide, cyclo[4-(NH2—C2H4—NH—CO—O)Pro-Phg-DTrp-Lys-Tyr(4-Bzl)-Phe]] (cyclo(F[Hyp]([CO-Ethylenediamine])[Phg]WKY(Bn)); configuration not given here), the “IGF-1 expression level, AvgDiff (range)” value (0.1 mg/animal/14day) was 85 (52 to 125), the “IGFBP6 expression level, AvgDiff (range)” value (0.1 mg/animal/14day) was 1,043 (853 to 1,155) and the “SSTR2 expression level, AvgDiff (range)” value (0.1 mg/animal/14day) was 93 (87 to 95). The “ATPase, Na+/K+ transporting, β 1 polypeptide RNA expression fold change” value [1] was “polypeptide ↑ x2.5”, the “Arginine vasopressin receptor 1B RNA expression fold change” value [1] was “receptor 1B ↑ x2” and the “Bcl-2 binding component 3 RNA expression fold change” value [1] was “↑ x2.5”. The “Ca++ channel, voltage-dependent, α 2/δ subunit 1 RNA expression fold change” value [1] was “subunit 1 ↑ x2”, the “Ca++ channel, voltage-dependent, α 2/δ subunit 2 RNA expression fold change” value [1] was “↑ x1.5” and the “Calcium/calmodulin-dependent protein kinase (CaM kinase) II β RNA expression fold change” value [1] was “II β ↑ x2”. For the same compound, the “Calmodulin 1 (phosphorylase kinase, δ) RNA expression fold change” value [1] was “kinase, δ) ↑ x2”, the “Calmodulin 2 (phosphorylase kinase, δ) RNA expression fold change” value [1] was “kinase, δ) ↑ x1.5” and the “Caspase 8, apoptosis-related cysteine protease RNA expression fold change” value [1] was “↑ x2.5”. The “Cdk 2 RNA expression fold change” value [1] was “Cdk 2 ↑ x1.5”, the “Cdk 5, regulatory subunit 1 (p35) RNA expression fold change” value [1] was “↑ x2” and the “Cdk 6 RNA expression fold change” value [1] was “Cdk 6 ↑ x3”. The “Cyclin D2 RNA expression fold change” value [1] was “Cyclin D2 ↑ x1.5”, the “Death-associated protein RNA expression fold change” value [1] was “↑ x1.5” and the “Follistatin-like 1 RNA expression fold change” value [1] was “↑ x1.5”. For the same compound, the “Gastric inhibitory polypeptide receptor RNA expression fold change” value [1] was “receptor ↑ x2”, the “HGF activator inhibitor precursor RNA expression fold change” value [1] was “↑ x1.5” and the “IFN regulatory factor 2 RNA expression fold change” value [1] was “factor 2 ↑ x3.5”. For the same compound, the “IFN-inducible RNA-dependent protein kinase RNA expression fold change” value [1] was “↑ x2.5”, the “IFNγ receptor 2 (IFNγ transducer 1) RNA expression fold change” value [1] was “↑ x1.5” and the “IFNγ responsive transcript RNA expression fold change” value [1] was “↑ x2”. The “IGF-1 RNA expression fold change” value [1] was “IGF-1 ↑ x1.5”, the “IGFBP6 RNA expression fold change” value [1] was “IGFBP6 ↑ x2.5” and the “IL 1 receptor-like 1 RNA expression fold change” value [1] was “↑ x2”. The “IL-8 receptor type B RNA expression fold change” value [1] was “↑ x1.5”, the “IP-4-phosphatase, type 1, isoform b RNA expression fold change” value [1] was “↑ x2” and the “K+ large conductance Ca++-activated channel, subfamily M, β member 1 RNA expression fold change” value [1] was “↑ x2.5”. For the same compound, the “LTb4 (chemokine receptor-like 1) RNA expression fold change” value [1] was “receptor-like 1) ↑ x3”, the “PDGF, α polypeptide RNA expression fold change” value [1] was “polypeptide ↑ x2.5” and the “PDGFR, α polypeptide RNA expression fold change” value [1] was “polypeptide ↑ x1.5”. The “PI-3-kinase, class 2, β polypeptide RNA expression fold change” value [1] was “↑ x1.5”, the “PI-3-kinase, class 3 RNA expression fold change” value [1] was “class 3 ↑ x2” and the “PKC, α binding protein RNA expression fold change” value [1] was “protein ↑ x2”. The “PLA2 RNA expression fold change” value [1] was “PLA2 ↑ x2”, the “Phosphatidylinositol glycan, class B RNA expression fold change” value [1] was “↑ x1.5” and the “Programmed cell death 10 RNA expression fold change” value [1] was “death 10 ↑ x1.5”. For the same compound, the “Putative chemokine receptor; GTP-binding protein RNA expression fold change” value [1] was “binding protein ↑ x2.5”, the “Rb binding protein RNA expression fold change” value [1] was “protein ↑ x2” and the “Rb-binding protein 8 RNA expression fold change” value [1] was “protein 8 ↑ x1.5”. For the same compound, the “S-phase kinase-associated protein 1A (p19A) RNA expression fold change” value [1] was 1A (p19A) ↑ x2, the “SSTR2 RNA expression fold change” value [1] was “SSTR2 ↑ x2” and the “Solute carrier family 9 (Na+/H+ exchanger) isoform 3 regulatory factor 1 RNA expression fold change” value [1] was “↑ x10.5”. The “TGF induced protein RNA expression fold change” value [1] was “protein ↑ x1.5”, the “TNF (cachectin) RNA expression fold change” value [1] was “↑ x2” and the “TNFR superfamily, member 12 RNA expression fold change” value [1] was “member 12 ↑ x1.5”. The “Tumour protein p53-binding protein RNA expression fold change” value [1] was “protein ↑ x1.5”, the “VEGF RNA expression fold change” value [1] was “VEGF ↑ x1.5” and the “Vasodilatator-stimulated phosphoprotein RNA expression fold change” value [1] was “phosphoprotein ↑ x2”. For the same compound, the “β adrenergic receptor kinase 1 RNA expression fold change” value [1] was “kinase 1 ↑ x3”, the “S-phase kinase-associated protein 1A RNA expression fold change” value (↑ increase, treated vs controls, second listing, without (p19A)) was 1A ↑ x2 and the “Adrenergic, α-2C-, receptor RNA expression fold change” value [2] was “↓ x2”. For the same compound, the “Cyclin I RNA expression fold change” value [2] was “Cyclin I ↓ x1.5”, the “Dopamine receptor D4 RNA expression fold change” value [2] was “receptor D4 ↓ x2” and the “EGF (β-urogastrone) RNA expression fold change” value [2] was “urogastrone) ↓ x2”. The “K+ voltage-gated channel, shaker-related subfamily, member 3 RNA expression fold change” value [2] was “member 3 ↓ x3”, the “Nuclear factor of activated T-cells, cytoplasmic, calcineurin-dependent 1 RNA expression fold change” value [2] was “dependent 1 ↓ x5” and the “PI-3-kinase, catalytic, α polypeptide RNA expression fold change” value [2] was “polypeptide ↓ x2.5”. For the same compound, the “PTHR 1 RNA expression fold change” value [2] was “PTHR 1 ↓ x2.5” and the “TGFβ receptor III (betaglycan, 300 kD) RNA expression fold change” value [2] was 300 kD) ↓ x1.5.
